In US20090042809A1, “Blood Pressure Lowering Protein Hydrolysates” (priority 2005, published 2009):
“Also recorded” adds a separate entry of the source.

Experiments:
ACE [1] = experiment: at-line ACE inhibition assay (HHL substrate, HPLC read-out); assay type: biochemical; details: at-line measurements used in the screening phase
Excerpt: The presence of novel ACE inhibiting peptides in CDBAP was investigated by using 2-dimensional-chromatographic-separation combined with an at-line ACE inhibition assay and mass spectrometry for identification. In the first analysis the peptide mixture was separated on an ODS3 liquid chromatography (LC) column and ACE inhibition profiles were generated from the various fractions obtained. In a second analysis the fractions from the first column showing a high ACE inhibition were further separated on a Biosuite LC column using a different gradient profile. The fractions collected from this second column were split into two parts: one part was used for the at-line ACE inhibition measurement while the other part was subjected to MS and MS-MS analysis to identify the peptides present. […]
The 96 well plate was then analysed on a flash-HPLC-column. […] Hippuric acid (H) and HHL were monitored at 280 nm. The peak heights of H and HHL were measured and the ACE inhibition (ACEI) of each fraction was calculated according to the equation:
[formula] • ACEIα Percentage inhibition of the analyte • Dcw Degree of Cleavage by ACE of HHL to H and HL in water • Dca Degree of Cleavage of HHL to H and HL for the analyte The Degree of Cleavage was calculated by expressing the peak height of H as a fraction of the sum of the peak heights of H and HHL.

ACE [2] = experiment: modified Matsui ACE inhibition assay (Hip-His-Leu, TNBS); assay type: biochemical
Experimental: To determine the ACE inhibition activity of MAP and ITP, the chemically synthesised tripeptides were assayed according to the method of Matsui et al. (Matsui, T. et al. (1992) Biosci. Biotech. Biochem. 56: 517-518) with some minor modifications.
Each one of the four samples contained 75 μl 3 mM hippuryl histidine leucine (Hip-His-Leu, Sigma Chemicals) dissolved in a 250 mM borate solution containing 200 mM NaCl, pH 8.3. ACE was obtained from Sigma Chemicals. The mixtures were incubated at 37° C. and stopped after 30 min by adding 125 μl 0.5 M HCl. Subsequently, 225 μl bicine/NaOH solution (1 M NaOH: 0.25 M bicine (4:6)) was added, followed by 25 μl 0.1 M TNBS (2,4,6-Trinitrobenzenesulfonic acid, Fluka, Switzerland; in 0.1 M Na2HPO4). After incubation for 20 min. at 37° C., 4 ml 4 mM Na2SO3 in 0.2 M NaH2PO4 was added and the light absorbance at 416 nm was measured with UV/Vis spectrophotometer (Shimadzu UV-1601 with a CPS controller, Netherlands).
The amount of ACE inhibition (ACEI) activity was calculated as a percentage of inhibition compared with the conversion rate of ACE in the absence of an inhibitor according to the following formula:
ACEI (%)=((Control 1−Control 2)−(Sample 1−Sample 2))/(Control 1−Control 2))*100
wherein • Control 1=Absorbance without ACE inhibitory component (=max. ACE activity) [AU]. • Control 2=Absorbance without ACE inhibitory component and without ACE (background) [AU]. • Sample 1=Absorbance in the presence of ACE and the ACE inhibitory component [AU]. • Sample 2=Absorbance in the presence of the ACE inhibitory component, but without ACE [AU].

ACE [3] = molecular target: ACE (Homo sapiens, UniProt P12821); details: cited from earlier work; for IC50: Nakamura et al. 1995, Aryoshi 1993, read-out: IC50 values reported earlier for ACE inhibiting peptides; for ACE inhibiting activities reported: in vitro, prior art
[4] = tested on: spontaneously hypertensive rats; details: tripeptides from fermented milk (Nakamura et al. 1995); cited from earlier work
[5] = gastrointestinal treatment (GIT) simulating digestion with pepsin and pancreatin; assay type: in vitro ADME, human
Experimental: After consumption, dietary proteins and peptides are exposed to various digestive enzymatic processes in the gastrointestinal tract. In order to assess the stability of the newly identified bioactive peptides in the human gastrointestinal tract, the CDBAP preparation (prepared as described in Example 7) was subjected to a gastrointestinal treatment (GIT) simulating the digestive conditions typically found in the human body. Samples obtained after various incubation times in the GIT model system were analysed using the on-line HPLC-Bioassay-MS or HRS-MS system to quantify any residual MAP and ITP peptides. The GIT procedure was performed in a standardized mixing device incorporating a 100 ml flask (as supplied by Vankel, US). The temperature of the water bath was set to 37.5° C. and the paddle speed was chosen such that the sample was kept in suspension (100 rpm).
About 3.4 grams of CDBAP (protein level of approx 60%) was dissolved/suspended in 100 ml Milli-Q water. During gastric simulation 5 M HCl was used to decrease the pH. At the end of gastric simulation and during the duodenal phase 5 M NaOH was used to raise the pH.
The CDBAP suspension was preheated to 37.5° C. and 5 ml of the suspension was removed to dissolve 0.31 g of pepsin (Fluka order no. 77161). At t=0 min the 5 ml with the now dissolved pepsin was added back to the suspension. Then the pH of the CDBAP suspension was adjusted slowly by hand using a separate pH meter according to the following scheme:
t=20 min pH decreased to 3.5 t=40 min pH to 3.0 t=50 min pH to 2.3 t=60 min pH to 1.8 t=65 min pH raised to 2.7 t=75 min pH to 3.7 t=80 min pH to 5.3 […]
Then the samples were transferred into a beaker and were placed in a microwave till boiling. […] The total N concentration of the powder as obtained was determined and converted to protein level using the Kjeldahl factor of casein (6.38). […] The levels of MAP and ITP surviving the proteolytic treatment according to the GIT procedure were determined as described in Example 7 and the data obtained are shown in Table 10.

[6] = as restated in the description, read-out: IC50 value in the Modified Matsui test

Chain of ACE (Homo sapiens, UniProt P12821) (P12821 30-1306, species assumed): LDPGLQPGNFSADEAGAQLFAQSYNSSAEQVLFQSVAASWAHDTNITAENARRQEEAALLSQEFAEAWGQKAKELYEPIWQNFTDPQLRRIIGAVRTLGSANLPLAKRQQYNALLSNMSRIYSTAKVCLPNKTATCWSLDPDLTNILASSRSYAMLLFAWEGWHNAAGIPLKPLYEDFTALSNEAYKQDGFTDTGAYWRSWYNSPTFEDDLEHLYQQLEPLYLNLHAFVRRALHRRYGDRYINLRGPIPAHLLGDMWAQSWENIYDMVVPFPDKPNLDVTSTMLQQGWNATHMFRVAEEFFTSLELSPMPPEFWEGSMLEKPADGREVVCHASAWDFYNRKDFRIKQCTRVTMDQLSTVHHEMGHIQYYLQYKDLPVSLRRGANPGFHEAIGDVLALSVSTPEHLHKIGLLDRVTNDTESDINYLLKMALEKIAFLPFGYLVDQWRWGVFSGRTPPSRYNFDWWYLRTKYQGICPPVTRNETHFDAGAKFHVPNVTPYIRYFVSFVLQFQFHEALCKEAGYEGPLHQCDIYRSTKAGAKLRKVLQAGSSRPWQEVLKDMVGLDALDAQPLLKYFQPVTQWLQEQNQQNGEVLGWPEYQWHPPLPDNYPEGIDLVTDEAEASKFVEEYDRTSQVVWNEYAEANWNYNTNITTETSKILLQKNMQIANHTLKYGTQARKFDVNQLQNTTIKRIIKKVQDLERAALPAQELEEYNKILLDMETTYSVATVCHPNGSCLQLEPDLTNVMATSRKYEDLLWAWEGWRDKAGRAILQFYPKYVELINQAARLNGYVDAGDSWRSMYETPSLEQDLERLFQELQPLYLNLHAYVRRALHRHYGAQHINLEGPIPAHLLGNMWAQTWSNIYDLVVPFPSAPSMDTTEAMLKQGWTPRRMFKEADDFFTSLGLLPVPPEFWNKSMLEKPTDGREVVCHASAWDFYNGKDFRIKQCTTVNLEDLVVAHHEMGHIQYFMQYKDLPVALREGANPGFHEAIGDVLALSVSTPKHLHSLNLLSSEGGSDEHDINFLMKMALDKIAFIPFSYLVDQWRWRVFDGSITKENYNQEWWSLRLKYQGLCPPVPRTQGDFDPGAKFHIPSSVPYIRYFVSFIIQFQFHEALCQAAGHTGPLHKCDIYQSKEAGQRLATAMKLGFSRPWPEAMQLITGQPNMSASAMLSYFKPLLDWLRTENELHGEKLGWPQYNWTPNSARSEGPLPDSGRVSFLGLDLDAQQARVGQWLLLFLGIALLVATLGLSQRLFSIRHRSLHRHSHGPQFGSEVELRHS

Substance	IC50 (ACE [1]) [µM]	IC50 (ACE [2]; [6]) [µM]	IC50 (ACE [3]) [µM]	ACE inhibiting activities reported (ACE [3])	antihypertensive effects [4]	IC50 (ACE [2]; chemically synthesized tripeptides, read-out: IC50 value, Modified Matsui assay) [µM]	Concentration of tripeptide in CDBAP before GIT procedure ([5]; CDBAP (Example 7), before passage) [μg g^−1 powder]	Concentration of tripeptide in CDBAP after GIT procedure ([5]; CDBAP after GIT, pepsin then pancreatin, 125 min, 37.5° C.) [μg g^−1 powder]	resistance against GIT digestion ([5]; simulated gastro-intestinal digestion)
Ile-Pro-Pro (IPP)	7.1	2	5	Strong ACE inhibiting activities	confirmed	–	–	–	–
Val-Pro-Pro [VPP]	–	–	–	Strong ACE inhibiting activities	confirmed	–	–	–	–
Leu-Pro-Pro [LPP]	–	–	9.6	Strong ACE inhibiting activities	–	–	–	–	–
Ile-Thr-Pro (ITP)	50	10	–	–	–	10	903.7	889.1	high resistance; also recorded: resist gastrointestinal proteolytic degradation; also recorded: survive
